The text below walks through data of US10501479B2, “Benzenesulfonyl-asymmetric ureas and medical uses thereof” (HELSINN HEALTHCARE SA, priority 2016, dated 2019).

Structures are written as SMILES. Several values for one entry are separate records, joined by “and”; a condition that tells them apart may be missing. Equal values may be shown once. Read-outs that look alike come from different tables or passages of the source.

For orientation: IC50 means the midpoint of a concentration-inhibition curve.

For data set [1], the target named is T1, GHSR-1a (HEK293/GHSR1a cell line) (Homo sapiens, UniProt Q92847).
T1 construct: expressed in transfected cells; host or cells: HEK293/GHSR1a cell line
T1 sequence (Q92847 whole entry): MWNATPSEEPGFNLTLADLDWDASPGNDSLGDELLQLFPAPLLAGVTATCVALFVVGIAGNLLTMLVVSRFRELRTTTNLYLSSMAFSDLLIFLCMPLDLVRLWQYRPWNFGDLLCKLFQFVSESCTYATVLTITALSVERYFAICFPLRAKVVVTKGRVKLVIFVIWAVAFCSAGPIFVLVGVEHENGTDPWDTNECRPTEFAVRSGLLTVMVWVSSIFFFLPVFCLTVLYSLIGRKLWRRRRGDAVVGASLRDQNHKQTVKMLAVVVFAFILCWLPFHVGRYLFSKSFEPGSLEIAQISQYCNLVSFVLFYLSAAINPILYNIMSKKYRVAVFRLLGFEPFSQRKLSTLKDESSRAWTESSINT
Nature of the data set: Ghrelin antagonist potency (IC50) with calcium FLIPR assay, ghrelin 10 nM. It counts as cell-based. An outline of the steps:
(§1)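 Cells seeded 24 h before the run were loaded with calcium dye for 30-60 min at room temperature or 37° C. For agonism, compound was added at t=20 sec and the calcium signal followed for 2 minutes. For antagonism, compound plus ghrelin (10 nM) went on at t=20 sec, and IC50 reflected the drop in ghrelin response.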

The nature of data set [2]: Metabolic stability in mouse liver microsomes. The data set is classed as in vitro ADME. On the procedure:
(§2) Metabolic Stability Study
(§3) The metabolic stability of compounds in human, dog, rat and mouse liver microsomes was performed according the experimental conditions reported below:
(§4) • a) Prepare the following 5 stock solutions: • 1. Test compound stock solutions: dilute 10 mM solution of dextromethorphan (Dtr) in DMSO, 10 mM solution of diphenhydramine (DPA) in DMSO, 10 mM solution of omeprazole (Ome) in DMSO, 10 mM solution of verapamil (Ver) in DMSO, and 10 mM of an inverse agonist compound in DMSO to 0.25 mM solution each with acetonitrile/water (70/30). • 2. Buffer: 100 mM potassium phosphate Buffer (PBS) at pH 7.4 • 3. Liver microsomes (20 mg/ml): Thaw in 37° C. water bath quickly • 4. 2000 μL: of NADPH regenerating system (1.3 mM). Place this system on ice before use:
(§5) • 5. […] The test compound concentration in the wells, measured by LC-MS/MS, represents the concentration at time=0. • f) To determine the test compound concentration when t≠0, pre-incubate the NADPH regenerating system and the incubation plate containing the remaining 320 μL of incubation mixture (microsomes protein and test compound) for 5 minutes at 37° C. • g) Start the incubation reaction by adding 80 μL NADPH regenerating system to each well containing the remaining 320 μL incubation mixture. • h) After 10 min., 30 min., and 90 min. of incubation at 37° C., transfer 100 μL of the incubation mixture (microsomes protein, test compound, and NADPH) into the wells of a stop plate pre-filled with 300 μL of the cold quench solution. Shake well. • i) Centrifuge the stop plate at 5000×g for 10 minutes. Collect and dilute the supernatant 3 times with distilled water. Sample and analyze the test compound concentration for all the wells by LC-MS/MS. Animal PK Studies via i.v. (intravenous), p.o. (orally) and s.c. (subcutaneous) administrations

Data set [3] in a line: Metabolic stability in human liver microsomes. The data set is classed as in vitro ADME. The procedure: as §2, §3, §4, §5
For orientation: Liver microsomes are vesicles of endoplasmic reticulum, rich in cytochrome P450 enzymes.

In data set [4] the target is T2, recombinant human ghrelin receptor (HEK293/GRLN) (Homo sapiens, UniProt Q92847).
T2 construct: expressed in transfected cells
T2 sequence (Q92847 whole entry): as above
The data set is described as follows: Ghrelin inverse agonist potency (EC50) with IP-1 (IP-One HTRF) assay. The data set is classed as cell-based. The following applies: IP-1 assay. An outline of the steps:
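HEK293/GRLN cells were seeded 18-22 hours before the test, then exposed to compound in stimulation buffer for 1 hour at 37° C, 5% CO2. IP-1 was detected by IP-One HTRF (IP1-d2 plus Tb-cryptate, 1 hour RT), reading 620 and 665 nm; the inverse agonist EC50 was derived from this.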

Data set [5] addresses T1, GHSR-1a (HEK293/GHSR1a cell line). The data set is described as follows: Ghrelin agonist potency (EC50) with calcium FLIPR assay. The data set is classed as cell-based. The following applies: ghrelin agonist potency, read-out: Activity EC50/EMax. An outline of the steps:
as §1

The mark [6] stands for this setting: inverse agonist potency, read-out: EC50 (Activity).
The mark [7] stands for this setting: ghrelin antagonist potency, read-out: IC50 (Activity).
The mark [8] stands for this setting: ghrelin inverse agonist potency, read-out: Activity EC50.
Setting [9] is: ghrelin antagonist potency, read-out: Activity IC50.

For the compound `O=C(NCc1ccccc1)Nc1ccc2c(c1)CC(c1ccc3c(c1)CNC3)S2(=O)=O` (stereo not shown) [H1271, 1-benzyl-3-(2-(isoindolin-5-yl)-1,1-dioxido-2,3-dihydrobenzo[b]thiophen-5-yl)urea], the concentration for half-maximal inhibition (IC50) in data set [1] (HEK293/GHSR1a, ghrelin 10 nM, read-out: Activity IC50 (ghrelin antagonist potency)) is 5 nM. Besides, in data set [2], the “Metabolic Stability Study M = mouse” value is recorded as “H < 10 M < 10 R = not reported D = not reported μL/min/mg”. For the same compound, in data set [3], the “Metabolic Stability Study H = human” value is listed as “H < 10 M < 10 R = not reported D = not reported μL/min/mg”.

With `Cc1oc(=O)oc1CN1CCc2cc(NS(=O)(=O)c3ccc(NC(=O)N[C@@H](C)c4cccc(Cl)c4Cl)cc3)ccc2C1` [H1068, (S)-4-(3-(1-(2,3-dichlorophenyl)ethyl)ureido)-N-(2-((5-methyl-2-oxo-1,3-dioxol-4-yl)methyl)-1,2,3,4-tetrahydroisoquinolin-6-yl)benzenesulfonamide], the EC50 in data set [4] (setting [6]) was found to be 8.4 nM. Besides, the IC50 in data set [1] (setting [7]) is 26.3 nM. In data set [2], the “Metabolic Stability Study M = mouse” value came out at 196.4 µL/min/mg. Further, the “Metabolic Stability Study H = human” value in data set [3] amounted to 199.7 µL/min/mg.

Take `Cl.O=C(NCc1ccccc1)Nc1ccc(S(=O)(=O)Cc2ccc3c(c2)CNC3)cc1` [H1179, 1-benzyl-3-(4-((isoindolin-5-ylmethyl)sulfonyl)phenyl)urea]: the EC50 in data set [4] (setting [6]) stood at 37.4 nM. In addition, the IC50 in data set [1] (setting [7]) turned out to be 143 nM. Besides, in data set [2], the “Metabolic Stability Study M = mouse” value was under 10 µL/min/mg. Moreover, in data set [3], the “Metabolic Stability Study H = human” value amounted to 14.9 µL/min/mg.

Take `CC(NC(=O)N(O)c1ccc(S(=O)(=O)Nc2ccc3c(c2)CNC3)cc1)c1cccc2ccccc12` (stereo not shown) [H1166, 4-(1-hydroxy-3-(1-(naphthalen-1-yl)ethyl)ureido)-N-(isoindolin-5-yl)benzenesulfonamide]: in data set [4] (setting [6]), the EC50 came out at 7.1 nM. Also, the IC50 in data set [1] (setting [7]) is 9 nM. In addition, the “Metabolic Stability Study M = mouse” value in data set [2] came out at 14.5 µL/min/mg. Moreover, the “Metabolic Stability Study H = human” value in data set [3] was 19.9 µL/min/mg.

In the case of `C[C@H](NC(=O)Nc1ccc(S(=O)(=O)Nc2ccc(N)cn2)cc1)c1cccc(Cl)c1Cl.Cl` [H1127, (S)-N-(5-aminopyridin-2-yl)-4-(3-(1-(2,3-dichlorophenyl)ethyl)ureido) benzenesulfonamide], the EC50 in data set [4] (setting [6]) was determined as 94.7 nM. The IC50 in data set [1] (setting [7]) was determined as 861 nM. Besides, in data set [2], the “Metabolic Stability Study M = mouse” value was determined as 59.5 µL/min/mg. In data set [3], the “Metabolic Stability Study H = human” value was 41 µL/min/mg.

For the compound `CN(C)C(C)(C)Cc1ccc(NS(=O)(=O)c2ccc(NC(=O)NCc3ccccc3)cc2)cc1` [H1009, 4-(3-benzylureido)-N-(4-(2-(dimethylamino)-2-methylpropyl)phenyl) benzenesulfonamide], in data set [4] (setting [6]), the EC50 was 32.8 nM. Further, the IC50 in data set [1] (setting [7]) worked out at 252 nM. In data set [2], the “Metabolic Stability Study M = mouse” value stood at 33.8 µL/min/mg. In addition, in data set [3], the “Metabolic Stability Study H = human” value stood at 13.2 µL/min/mg.

Consider `CCN1Cc2ccc(C(C)S(=O)(=O)c3ccc(NC(=O)NC(C)c4ccccc4)cc3)cc2C1` (stereo not shown) [H1234, 1-(4-((1-(2-ethylisoindolin-5-yl)ethyl)sulfonyl)phenyl)-3-(1-phenylethyl)urea], for which the EC50 in data set [4] (setting [6]) was 15.4 nM. In addition, the IC50 in data set [1] (setting [7]) came out at 42.6 nM. For the same compound, in data set [2], the “Metabolic Stability Study M = mouse” value was found to be 122.7 µL/min/mg. Besides, the “Metabolic Stability Study H = human” value in data set [3] came to 149.8 µL/min/mg.

As for `C[C@H](NC(=O)Nc1ccc(S(=O)(=O)N(C)c2ccc(CC(C)(C)N)cc2)cc1)c1cccc(Cl)c1Cl.Cl` [H0971, (S)-N-(4-(2-amino-2-methylpropyl)phenyl)-4-(3-(1-(2,3-dichlorophenyl)ethyl)ureido)-N-methylbenzenesulfonamide], the EC50 in data set [4] (setting [6]) was 135 nM. For the same compound, the IC50 in data set [1] (setting [7]) is 417 nM. Further, in data set [2], the “Metabolic Stability Study M = mouse” value came out at 24.8 µL/min/mg. Also, the “Metabolic Stability Study H = human” value in data set [3] worked out at 31.9 µL/min/mg.

On to `C[C@H](NC(=O)Nc1ccc(S(=O)(=O)Nc2ccnc(N)n2)cc1)c1cccc(Cl)c1Cl` [H1125, (S)-N-(2-aminopyrimidin-4-yl)-4-(3-(1-(2,3-dichlorophenyl)ethyl)ureido) benzenesulfonamide], for which the EC50 in data set [4] (setting [6]) came to 93.3 nM. Also, the IC50 in data set [1] (setting [7]) stood at 893 nM. Moreover, in data set [2], the “Metabolic Stability Study M = mouse” value worked out at 14.9 µL/min/mg. Besides, the “Metabolic Stability Study H = human” value in data set [3] was found to be 10.7 µL/min/mg.

As to `C[C@H](NC(=O)Nc1ccc(S(=O)(=O)Nc2cnc(N)nc2)cc1)c1cccc(Cl)c1Cl` [H1108], the EC50 in data set [4] (setting [6]) is 117 nM. Also, the IC50 in data set [1] (setting [7]) was determined as 422 nM. Further, the “Metabolic Stability Study M = mouse” value in data set [2] is 47.5 µL/min/mg. The “Metabolic Stability Study H = human” value in data set [3] is 38.7 µL/min/mg.

In the case of `CCN1CCc2cc(NS(=O)(=O)c3ccc(NC(=O)N[C@@H](C)c4ccc(OC)c(Cl)c4Cl)cc3)ccc2C1` [H1018, (S)-4-(3-(1-(2,3-dichloro-4-methoxyphenyl)ethyl)ureido)-N-(2-ethyl-1,2,3,4-tetrahydroisoquinolin-6-yl)benzenesulfonamide], the EC50 in data set [4] (setting [6]) was determined as 13.7 nM. Also, in data set [1] (setting [7]), the IC50 was 99.8 nM. Also, in data set [2], the “Metabolic Stability Study M = mouse” value is 46.3 µL/min/mg. Also, in data set [3], the “Metabolic Stability Study H = human” value is under 10 µL/min/mg.

In the case of `CN1Cc2ccc(CS(=O)(=O)c3ccc(NC(=O)NC(c4ccccc4)C(F)(F)F)cc3)cc2C1` (stereo not shown) [H1227, 1-(4-(((2-methylisoindolin-5-yl)methyl)sulfonyl)phenyl)-3-(2,2,2-trifluoro-1-phenylethyl)urea], the EC50 in data set [4] (setting [6]) came to 175 nM. The IC50 in data set [1] (setting [7]) was found to be 38.4 nM. Further, the “Metabolic Stability Study M = mouse” value in data set [2] came out at 79.9 µL/min/mg. The “Metabolic Stability Study H = human” value in data set [3] was found to be 99.4 µL/min/mg.

For the compound `CN1Cc2ccc(CS(=O)(=O)c3ccc(NC(=O)NCc4ccccc4)cc3)cc2C1` [H1193, 1-benzyl-3-(4-(((2-methylisoindolin-5-yl)methyl)sulfonyl)phenyl)urea], in data set [4] (setting [6]), the EC50 was 64 nM. Besides, the IC50 in data set [1] (setting [7]) came out at 324 nM. Further, the “Metabolic Stability Study M = mouse” value in data set [2] was 43.7 µL/min/mg. Further, in data set [3], the “Metabolic Stability Study H = human” value was 49.8 µL/min/mg.

As to `COc1ccc(C(C)NC(=O)Nc2ccc(S(=O)(=O)Cc3ccc4c(c3)CNC4)cc2)c2ccccc12` (stereo not shown) [H1154, 1-(4-((isoindolin-5-ylmethyl)sulfonyl)phenyl)-3-(1-(4-methoxynaphthalen-1-yl)ethyl)urea], the EC50 in data set [4] (setting [6]) is 29.8 nM and 26.8 nM. Further, the concentration for half-maximal inhibition (IC50) in data set [1] (setting [7]) was found to be 126 nM. In data set [2], the “Metabolic Stability Study M = mouse” value worked out at 22.9 µL/min/mg. In addition, the “Metabolic Stability Study H = human” value in data set [3] was 19.2 µL/min/mg.

With `CC(NC(=O)Nc1ccc(S(=O)(=O)Cc2ccc3c(c2)CNC3)c(Cl)c1)c1ccccc1` (stereo not shown) [H1494, 1-(3-chloro-4-((isoindolin-5-ylmethyl)sulfonyl)phenyl)-3-(1-phenylethyl)urea], the EC50 is over 30000 nM in data set [5] and 4 nM in data set [4] (setting [8]). Also, the IC50 in data set [1] (setting [9]) was determined as 10.6 nM. The “Metabolic Stability Study H = human” value in data set [3] is “H = 19.1 μL/min/mg”.

As to `COc1cc(S(=O)(=O)Cc2ccc3c(c2)CNC3)ccc1NC(=O)N(O)C(C)c1cccc(Cl)c1Cl` (stereo not shown) [H1495, 1-(1-(2,3-dichlorophenyl)ethyl)-1-hydroxy-3-(4-((isoindolin-5-ylmethyl)sulfonyl)-2-methoxyphenyl)urea], the results for the EC50 in data set [5] and in data set [4] (setting [8]) were over 30000 nM and 1.2 nM, respectively. Moreover, in data set [1] (setting [9]), the IC50 amounted to 2.16 nM. Moreover, the “Metabolic Stability Study H = human” value in data set [3] is on record as “H = 21.1 μL/min/mg”.

Take `CC(c1ccccc1F)N(O)C(=O)Nc1ccc(S(=O)(=O)Cc2ccc3c(c2)CNC3)cc1.Cl` (stereo not shown) [H1490, 1-(1-(2-fluorophenyl)ethyl)-1-hydroxy-3-(4-((isoindolin-5-ylmethyl)sulfonyl)phenyl)urea]: the EC50 in data set [5] is over 30000 nM; in data set [4] (setting [8]) it was 3.6 nM. The IC50 in data set [1] (setting [9]) stood at 5.43 nM. In addition, the “Metabolic Stability Study H = human” value in data set [3] is on record as “H = 12.8 μL/min/mg”.
